Assay results taken from US8470812B2, “Substituted benzo-pyrimido-tetrazolo-diazepine compounds” (ArQule, Inc., priority 2009, dated 2013).

Legend:
[1] = tested on: DLD-1 cancer cells; test: MTS assay, cell growth inhibition; assay type: cell-based; conditions: DLD-1 cells, 72 h incubation; test concentration not given
Procedure: (§1) Cells were maintained at 37° C., 5% CO2 in DMEM media supplemented with 1% fetal bovine serum, penicillin/streptomycin and fungizone (Invitrogen). Cells were seeded into 96-well tissue culture plates at 3000 per well and cultured at 37° C. for 18 hours. Test compounds were dissolved and diluted to 300× in DMSO then diluted 1:40 in DMEM. Cells were incubated with test compounds for 72 hours followed by incubation with tetrazolium compound (3-(4,5-dimethylthiazol-2-yl)-5-(3-carboxymethoxyphenyl)-2-(4-sulfophenyl)-2H-tetrazolium, inner salt; MTS) and the electron coupling reagent, phenazine methosulfate (PMS) for 4 hours. […] The ability of compounds to inhibit cell growth in this assay is correlated with the reduction of dehydrogenase enzyme activity found in metabolically active cells. The measurement of the absorbance of the formazan was assessed using a Victor (Perkin Elmer) microplate reader at 492 nm. The calculated IC50 value is the concentration of the test compound that causes a 50% decrease in the absorbance. Selected compounds have been tested in DLD-1 and MDA-MB-231 cancer cells.

[2] = tested on: MDA-MB-231 cancer cells; test: MTS assay, cell growth inhibition; assay type: cell-based; conditions: MDA-MB-231 cells, 72 h incubation; test concentration not given
Procedure: as §1

Compound | DLD-1, MTS, 72 h (% Inhibition) [1] [%] | MDA-MB-231, MTS, 72 h (% Inhibition) [2] [%]
c1ccc2c(c1)Nc1nc(NC3CCCC3)ncc1-c1nnnn1-2 [Compound 45, N-cyclopentyl-9H-pyrimido[5,4-c]tetrazolo[1,5-a][1,5]benzodiazepin-11-amine] | 95 | 76
c1ccc2c(c1)Nc1nc(NCC3CC3)ncc1-c1nnnn1-2 [Compound 9, N-(cyclopropylmethyl)-9H-pyrimido[5,4-c]tetrazolo[1,5-a][1,5]benzodiazepin-11-amine] | 98 | 92
c1ccc2c(c1)CCCC2Nc1ncc2c(n1)Nc1ccccc1-n1nnnc1-2 (stereo not shown) [Compound 77, N-(1,2,3,4-tetrahydronaphthalen-1-yl)-9H-pyrimido[5,4-c]tetrazolo[1,5-a][1,5]benzodiazepin-11-amine] | 97 | 86
CC1CCCN1c1ncc2c(n1)Nc1ccccc1-n1nnnc1-2 (stereo not shown) [Compound 68, 11-(2-methylpyrrolidin-1-yl)-9H-pyrimido[5,4-c]tetrazolo[1,5-a][1,5]benzodiazepine] | 97 | 75
Fc1cc(F)cc(CNc2ncc3c(n2)Nc2ccccc2-n2nnnc2-3)c1 [Compound 76, N-(3,5-difluorobenzyl)-9H-pyrimido[5,4-c]tetrazolo[1,5-a][1,5]benzodiazepin-11-amine] | 73 | –
Fc1ccccc1CNc1ncc2c(n1)Nc1ccccc1-n1nnnc1-2 [Compound 88, N-(2-fluorobenzyl)-9H-pyrimido[5,4-c]tetrazolo[1,5-a][1,5]benzodiazepin-11-amine] | 96 | 41
Clc1ccccc1CCNc1ncc2c(n1)Nc1ccccc1-n1nnnc1-2 [Compound 89, N-[2-(2-chlorophenyl)ethyl]-9H-pyrimido[5,4-c]tetrazolo[1,5-a][1,5]benzodiazepin-11-amine] | 31 | –
Fc1ccc(CN2c3ccccc3-n3nnnc3-c3cnc(N4CCOCC4)nc32)cc1F [Compound 13, 9-(3,4-difluorobenzyl)-11-morpholin-4-yl-9H-pyrimido[5,4-c]tetrazolo[1,5-a][1,5]benzodiazepine] | 97 | 98
Fc1ccc(CN2c3ccccc3-n3nnnc3-c3cnc(N4CCNCC4)nc32)cc1F [Compound 11, 9-(3,4-difluorobenzyl)-11-piperazin-1-yl-9H-pyrimido[5,4-c]tetrazolo[1,5-a][1,5]benzodiazepine] | 97 | 97
c1ccc(CNc2ncc3c(n2)Nc2ccccc2-n2nnnc2-3)nc1 [Compound 25, N-(pyridin-2-ylmethyl)-9H-pyrimido[5,4-c]tetrazolo[1,5-a][1,5]benzodiazepin-11-amine] | 97 | 79
COc1ccc(CNc2ncc3c(n2)Nc2ccccc2-n2nnnc2-3)cc1OC [Compound 57, N-(3,4-dimethoxybenzyl)-9H-pyrimido[5,4-c]tetrazolo[1,5-a][1,5]benzodiazepin-11-amine] | 97 | 39
CCN1CCN(c2ncc3c(n2)Nc2ccccc2-n2nnnc2-3)CC1 [Compound 43, 11-(4-ethylpiperazin-1-yl)-9H-pyrimido[5,4-c]tetrazolo[1,5-a][1,5]benzodiazepine] | 32 | 90
Fc1ccc(CNc2ncc3c(n2)Nc2ccccc2-n2nnnc2-3)c(Cl)c1 [Compound 102, N-(2-chloro-4-fluorobenzyl)-9H-pyrimido[5,4-c]tetrazolo[1,5-a][1,5]benzodiazepin-11-amine] | 84 | –
Clc1ccccc1CNc1ncc2c(n1)Nc1ccccc1-n1nnnc1-2 [Compound 48, N-(2-chlorobenzyl)-9H-pyrimido[5,4-c]tetrazolo[1,5-a][1,5]benzodiazepin-11-amine] | 97 | 51
c1ccc2c(c1)Nc1nc(NC3CCC3)ncc1-c1nnnn1-2 [Compound 85, N-cyclobutyl-9H-pyrimido[5,4-c]tetrazolo[1,5-a][1,5]benzodiazepin-11-amine] | 97 | 99
c1csc(CNc2ncc3c(n2)Nc2ccccc2-n2nnnc2-3)c1 [Compound 81, N-(thiophen-2-ylmethyl)-9H-pyrimido[5,4-c]tetrazolo[1,5-a][1,5]benzodiazepin-11-amine] | 41 | –
CC(C)CN(C)c1ncc2c(n1)Nc1ccccc1-n1nnnc1-2 [Compound 47, N-methyl-N-(2-methylpropyl)-9H-pyrimido[5,4-c]tetrazolo[1,5-a][1,5]benzodiazepin-11-amine] | 46 | –

Compound | DLD-1, MTS, 72 h (% Inhibition) [1] [%] | MDA-MB-231, MTS, 72 h (% Inhibition) [2] [%]
COc1ccccc1CCNc1ncc2c(n1)Nc1ccccc1-n1nnnc1-2 [Compound 69, N-[2-(2-methoxyphenyl)ethyl]-9H-pyrimido[5,4-c]tetrazolo[1,5-a][1,5]benzodiazepin-11-amine] | 58 | –
Cc1ccc(CNc2ncc3c(n2)Nc2ccccc2-n2nnnc2-3)cc1 [Compound 73, N-(4-methylbenzyl)-9H-pyrimido[5,4-c]tetrazolo[1,5-a][1,5]benzodiazepin-11-amine] | – | 39
Fc1ccc(CNc2ncc3c(n2)Nc2ccccc2-n2nnnc2-3)cc1F [Compound 36, N-(3,4-difluorobenzyl)-9H-pyrimido[5,4-c]tetrazolo[1,5-a][1,5]benzodiazepin-11-amine] | 31 | –
COc1cccc(CCNc2ncc3c(n2)Nc2ccccc2-n2nnnc2-3)c1 [Compound 84, N-[2-(3-methoxyphenyl)ethyl]-9H-pyrimido[5,4-c]tetrazolo[1,5-a][1,5]benzodiazepin-11-amine] | 42 | –
CN1CCC(Nc2ncc3c(n2)Nc2ccccc2-n2nnnc2-3)CC1 [Compound 66, N-(1-methylpiperidin-4-yl)-9H-pyrimido[5,4-c]tetrazolo[1,5-a][1,5]benzodiazepin-11-amine] | 97 | –
c1ccc2c(c1)Nc1nc(N3CCN(c4ccncc4)CC3)ncc1-c1nnnn1-2 [Compound 34, 11-(4-pyridin-4-ylpiperazin-1-yl)-9H-pyrimido[5,4-c]tetrazolo[1,5-a][1,5]benzodiazepine] | 97 | –
Fc1ccc(CNc2ncc3c(n2)Nc2ccccc2-n2nnnc2-3)cc1Cl [Compound 55, N-(3-chloro-4-fluorobenzyl)-9H-pyrimido[5,4-c]tetrazolo[1,5-a][1,5]benzodiazepin-11-amine] | 45 | –
c1ccc(CCNc2ncc3c(n2)Nc2ccccc2-n2nnnc2-3)cc1 [Compound 35, N-(2-phenylethyl)-9H-pyrimido[5,4-c]tetrazolo[1,5-a][1,5]benzodiazepin-11-amine] | – | 42
Fc1ccc(CCNc2ncc3c(n2)Nc2ccccc2-n2nnnc2-3)cc1 [Compound 74, N-[2-(4-fluorophenyl)ethyl]-9H-pyrimido[5,4-c]tetrazolo[1,5-a][1,5]benzodiazepin-11-amine] | 78 | –
c1ccc(CC2CCN(c3ncc4c(n3)Nc3ccccc3-n3nnnc3-4)CC2)cc1 [Compound 105, 11-(4-benzylpiperidin-1-yl)-9H-pyrimido[5,4-c]tetrazolo[1,5-a][1,5]benzodiazepine] | – | 56
COc1ccccc1CNc1ncc2c(n1)Nc1ccccc1-n1nnnc1-2 [Compound 50, N-(2-methoxybenzyl)-9H-pyrimido[5,4-c]tetrazolo[1,5-a][1,5]benzodiazepin-11-amine] | 54 | –
CC1CCCCC1Nc1ncc2c(n1)Nc1ccccc1-n1nnnc1-2 (stereo not shown) [Compound 97, N-(2-methylcyclohexyl)-9H-pyrimido[5,4-c]tetrazolo[1,5-a][1,5]benzodiazepin-11-amine] | 39 | –
Cc1cccc(CNc2ncc3c(n2)Nc2ccccc2-n2nnnc2-3)c1 [Compound 83, N-(3-methylbenzyl)-9H-pyrimido[5,4-c]tetrazolo[1,5-a][1,5]benzodiazepin-11-amine] | 89 | –
c1ccc2c(c1)Nc1nc(NCCN3CCCC3)ncc1-c1nnnn1-2 [Compound 37, N-(2-pyrrolidin-1-ylethyl)-9H-pyrimido[5,4-c]tetrazolo[1,5-a][1,5]benzodiazepin-11-amine] | 95 | –
CC(CNc1ncc2c(n1)Nc1ccccc1-n1nnnc1-2)c1ccccc1 (stereo not shown) [Compound 44, N-(2-phenylpropyl)-9H-pyrimido[5,4-c]tetrazolo[1,5-a][1,5]benzodiazepin-11-amine] | 51 | –
Cc1ccc(CNc2ncc3c(n2)Nc2ccccc2-n2nnnc2-3)cc1F [Compound 46, N-(3-fluoro-4-methylbenzyl)-9H-pyrimido[5,4-c]tetrazolo[1,5-a][1,5]benzodiazepin-11-amine] | 69 | –
Cc1ccc(CCNc2ncc3c(n2)Nc2ccccc2-n2nnnc2-3)cc1 [Compound 90, N-[2-(4-methylphenyl)ethyl]-9H-pyrimido[5,4-c]tetrazolo[1,5-a][1,5]benzodiazepin-11-amine] | 61 | –
